This note sets out measurements from US8629168B2, “Benzoxazoles and oxazolopyridines being useful as janus kinases inhibitors” (priority 2006, dated 2014).

One data set addresses T1, GST-JAK2 (Homo sapiens, UniProt O60674).
T1 construct: the amino acid domain ASP751-VAL1129 of the JAK2 protein
Nature of the data set: JAK2 kinase assay of the general description (alternative method, flash plate). In kind it is biochemical. To be noted: 1.0 μM ATP, read-out: IC50 with test in general description (named “alternative method to that given in the examples”) (“flash plate”). As for the experimental part: Baculovirus including the amino acid domain ASP751-VAL1129 of the JAK2 protein is obtainable by ProQinase, Freiburg, Germany. The virus is scaled up as following: Virus containing media is collected from the transfected cell culture and used for infection to increase its titer. Virus containing media obtained after two rounds of infection is used for large-scale protein expression. For large-scale protein expression 100 cm^2 round tissue culture plates are seeded with 5×10^7 cells/plate and infected with 1 mL of virus-containing media (approx. 5 MOIs). After 3 days the cells are scraped off the plate and centrifuged at 500 rpm for 5 min. Cell pellets from 10-20, 100 cm^2 plates, are re-suspended in 50 mL of ice-cold lysis buffer (25 mMTris-HCl, pH7.5, 2 mMEDTA, 1% NP-40, 1 mM DTT, 1 mMP MSF). The cells are stirred on ice for 15 min and then centrifuged at 5000 rpms for 20 min. The protein is purified by loading the centrifuged cell lysate onto a 2 mL glutathione-sepharose column and washed three times with 10 mL of 25 mM Tris-HCl, pH 7.5, 2 mM EDTA, 1 mM DTT, 200 mM NaCl. The GST-tagged proteins are then eluted by 10 applications (1 mL each) of 25 mM Tris-HCl, pH 7.5, 10 mM reduced-glutathione, 100 mM NaCl, 1 mM DTT, 10% Glycerol and stored at −70° C.
Cancer Cell; 5: 231-239]. The test compound is dissolved in DMSO (10 mM) and stored at −20° C. Serial dilutions are freshly made in DMSO and are […] concentrated than test solutions (“pre-dilution plates”). They are further diluted with pure water to yield “master plates” containing 3 times concentrated test solutions in 3% DMSO. The final volume of the assay is 30 μL containing 10 μL of test solution (1% DMSO), 10 μL assay mix including the assay components described by Garcia-Echeverria (2004) and in the following section as well as 10 μL enzyme. The pipetting steps can be programmed to be performed either on the MultiPROBE Iix, MultiPROBE IILx or HamiltonSTAR robots in the 96 well format.
The protein kinase assays are carried as described in details by Garcia-Echeverria (see above). The assay for JAK2 is carried out in 96-well plates at ambient temperature for 10 min (filter-biding method) or 30 min (flash plates) in a finial volume of 30 μL including the following components: 300 ng of GST-JAK2, 20 mM Tris-HCl, pH 7.5, 1.0 mM MnCl2, 10 mM MgCl2, 1 mM DTT, 3 μg/mL poly(Glu, Tyr) 4:1, 1% DMSO and 1.0 μM ATP (γ-[^33P]-ATP 0.1 μCi); The assays are terminated by the addition of 20 μl of 125 mM EDTA. The capturing of the phosphorylated peptides by the filter-binding method is performed as following: 40 μL of the reaction mixture are transferred onto Immobilon-PVDF membranes previously soaked for 5 min with methanol, rinsed with water, then soaked for 5 min with 0.5% H3PO4 and mounted on vacuum manifold with disconnected vacuum source. After spotting all samples, vacuum is connected and each well rinsed with 200 μl 0.5% H3PO4. Free membranes are removed and washed 4× on a shaker with 1.0% H3PO4, once with ethanol. Membranes are counted after drying at ambient temperature, mounting in Packard TopCount 96-well frame, and addition of 10 μl/well of Microscint. The plates are eventually sealed and counted in a microplate scintillation counter (TopCount NXT, TopCount NXT HTS, PerkinElmer, Brussels, Belgium).
The assays for the flash plate method is carried out in a total volume of 30 μL at RT in conventional 96-well flash plates. The reaction is stopped after 30 min by the addition of 20 μL of 125 mM EDTA The assay plates are then washed three times with PBS and dried at room temperature. The plates are sealed and counted in a microplate scintillation counter (TopCount NXT, TopCount NXT HTS). IC50 values are calculated by linear regression analysis of the percentage inhibition of the compound either in duplicate, at four concentrations (usually 0.01, 0.1, 1 and 10 μM) or as 8 single point IC50 starting at 10 μM following by 1:3 dilutions.

The next data set concerns the target T2, GST-JAK2(808-1132) (Homo sapiens, UniProt O60674).
T2 construct: GST-JAK2(808-1132) is purchased from Invitrogen; purchased Invitrogen (Carlsbad, USA) #4288
Nature of the data set: EPK JAK/TYK-kinase family profiling assay (Caliper mobility shift), JAK2. In kind it is biochemical. The conditions noted are these: Caliper mobility shift assay of Example 187, 20 μM ATP, read-out: IC50 with Test in present Example. The method in brief: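 Caliper mobility-shift assay with the GST-tagged kinase domain and a fluorescently labeled peptide substrate plus ATP, run 60 min at 30° C and then stopped with EDTA buffer. Turnover was taken as the substrate/product ratio. Compounds were tested at eight final concentrations from 10 to 0.003 μM.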

The structures appear in SMILES notation.

T2 sequence (O60674 808-1132): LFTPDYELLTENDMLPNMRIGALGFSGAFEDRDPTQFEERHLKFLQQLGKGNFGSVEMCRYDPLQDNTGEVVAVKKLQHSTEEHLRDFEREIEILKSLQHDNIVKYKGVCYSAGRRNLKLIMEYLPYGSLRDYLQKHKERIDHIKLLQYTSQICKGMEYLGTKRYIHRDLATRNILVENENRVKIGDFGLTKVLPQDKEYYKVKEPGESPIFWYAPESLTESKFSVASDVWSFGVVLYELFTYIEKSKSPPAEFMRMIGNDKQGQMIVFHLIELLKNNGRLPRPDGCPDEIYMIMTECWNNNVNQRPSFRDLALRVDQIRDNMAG
T1 sequence (O60674 751-1129): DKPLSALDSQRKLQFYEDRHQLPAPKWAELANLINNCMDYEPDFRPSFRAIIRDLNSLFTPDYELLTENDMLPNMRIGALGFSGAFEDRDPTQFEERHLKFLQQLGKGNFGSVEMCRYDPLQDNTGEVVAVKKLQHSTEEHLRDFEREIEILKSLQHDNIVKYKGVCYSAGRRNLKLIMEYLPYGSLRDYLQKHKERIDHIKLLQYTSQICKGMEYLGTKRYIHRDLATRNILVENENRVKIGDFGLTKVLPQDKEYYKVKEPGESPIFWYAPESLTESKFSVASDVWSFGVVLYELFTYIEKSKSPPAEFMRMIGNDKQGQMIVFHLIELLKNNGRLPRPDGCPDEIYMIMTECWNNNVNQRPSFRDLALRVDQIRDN

What is called melting point is the temperature of the solid-liquid transition. `CNC(=O)c1cc(-c2cccc3nc(Nc4cc(OC)c(OC)c(OC)c4)oc23)cs1` (hydrate or solvate) [Example 34, 4-[2-(3,4,5-Trimethoxy-phenylamino)-benzooxazol-7-yl]-thiophene-2-carboxylic acid methylamide]: the melting point was 260 to 262 °C. As usually defined, the IC50 is the concentration that gives 50% inhibition. With `Nc1cccc(-c2cccc3nc(Nc4ccc(N5CCOCC5)nc4)oc23)c1` [Example 42, [7-(3-Amino-phenyl)-benzooxazol-2-yl]-(6-morpholin-4-yl-pyridin-3-yl)-amine], the melting point is 235 to 237 °C. The IC50 at GST-JAK2 is 1200 nM.

In the case of `COc1cc(Nc2nc3cccc(-c4cccc(C)c4)c3o2)cc(OC)c1OC` [Example 1, (7-m-Tolyl-benzooxazol-2-yl)-(3,4,5-trimethoxy-phenyl)-amine], the melting point is 155 to 158 °C. For the same compound, the IC50 at GST-JAK2 worked out at 337 nM. In the same order, the values of `COc1cc(Nc2nc3cccc(-c4ccc(S(=O)(=O)N(C)C)cc4)c3o2)cc(OC)c1OC` [Example 22, N,N-Dimethyl-4-[2-(3,4,5-trimethoxy-phenylamino)-benzooxazol-7-yl]-benzenesulfonamide] are 230 to 233 °C and 140 nM. Taken in the same sequence, the figures for `COc1cc(Nc2nc3cccc(-c4cncc5ccccc45)c3o2)cc(OC)c1OC` [Example 8, (7-Isoquinolin-4-yl-benzooxazol-2-yl)-(3,4,5-trimethoxy-phenyl)-amine] were 201 to 203 °C and 368 nM. Taken in the same sequence, the figures for `COc1cc(Nc2nc3ccnc(-c4cccc(N)c4)c3o2)cc(OC)c1OC` [Example 37, [4-(3-Amino-phenyl)-oxazolo[5,4-c]pyridin-2-yl]-(3,4,5-trimethoxy-phenyl)-amine] were 120 to 126 °C and 240 nM. As for `COc1cc(Nc2nc3cccc(-c4ccc(CNC(C)=O)cc4)c3o2)cc(OC)c1OC` (hydrate or solvate) [Example 30, N-{4-[2-(3,4,5-Trimethoxy-phenylamino)-benzooxazol-7-yl]-benzyl}-acetamide], the melting point lay in the range of 237 to 239 °C. As to `COc1cc(Nc2nc3cccc(-c4cccc(N)c4)c3o2)cc(OC)c1OC` [Example 10, [7-(3-Amino-phenyl)-benzooxazol-2-yl]-(3,4,5-trimethoxy-phenyl)-amine], the melting point lay in the range of 145 to 170 °C. On GST-JAK2, the IC50 was 132 nM. In turn, `COc1cc(Nc2nc3ccnc(-c4ccc(N)cc4)c3o2)cc(OC)c1OC` (hydrate or solvate) [Example 36, [4-(4-Amino-phenyl)-oxazolo[5,4-c]pyridin-2-yl]-(3,4,5-trimethoxy-phenyl)-amine] showed a melting point of 148 to 151 °C.

Turning to `COc1cc(Nc2nc3cccc(-c4ccc(C(=O)N5CCN(C)CC5)cc4)c3o2)cc(OC)c1OC` [Example 142, (4-Methyl-piperazin-1-yl)-{4-[2-(3,4,5-trimethoxy-phenylamino)-benzooxazol-7-yl]-phenyl}-methanone], the values for the IC50 at GST-JAK2(808-1132) and at GST-JAK2 were 58.5 nM and 700 nM, respectively. In the same order, the values of `COc1cc(Nc2nc3cccc(-c4ccc(CC(=O)N5CCOCC5)cc4)c3o2)cc(OC)c1OC` [Example 140, 1-Morpholin-4-yl-2-{4-[2-(3,4,5-trimethoxy-phenylamino)-benzooxazol-7-yl]-phenyl}-ethanone] are 3.7 nM and 140 nM. In turn, `COc1cc(Nc2nc3cccc(-c4ccc(NS(C)(=O)=O)cc4)c3o2)cc(OC)c1OC` (hydrate or solvate) [Example 26, N-{4-[2-(3,4,5-Trimethoxy-phenylamino)-benzooxazol-7-yl]-phenyl}-methanesulfonamide] returned a melting point of 222 to 225 °C.

As to `CNS(=O)(=O)c1ccc(-c2cccc3nc(Nc4ccc(OC)cc4)oc23)cc1` [Example 139, 4-[2-(4-Methoxy-phenylamino)-benzooxazol-7-yl]-N-methyl-benzenesulfonamide], the IC50 amounted to 120 nM at GST-JAK2(808-1132) and 400 nM at GST-JAK2. In the same order, the values of `COc1cc(Nc2nc3cccc(-c4ccc(CNS(C)(=O)=O)cc4)c3o2)cc(OC)c1OC` [Example 31, N-{4-[2-(3,4,5-Trimethoxy-phenylamino)-benzooxazol-7-yl]-benzyl}-methanesulfonamide] are 16.2 nM and 60.5 nM. Taken in the same sequence, the figures for `COc1cc(Nc2nc3cccc(-c4ccc(S(N)(=O)=O)cc4)c3o2)cc(OC)c1` [Example 60, 4-[2-(3,5-Dimethoxy-phenylamino)-benzooxazol-7-yl]-benzenesulfonamide] were 170 nM and 160 nM.

In the case of `COc1cc(Nc2nc3cccc(-c4ccc(CNC(C)=O)cc4)c3o2)cc(OC)c1OC` [Example 30, N-{4-[2-(3,4,5-Trimethoxy-phenylamino)-benzooxazol-7-yl]-benzyl}-acetamide], the results for the IC50 on GST-JAK2(808-1132) and on GST-JAK2 were 21 nM and 41 nM, respectively.

On to `COc1cc(Nc2nc3cccc(-c4ccc5[nH]cnc5c4)c3o2)cc(OC)c1OC` (hydrate or solvate) [Example 35, [7-(1H-Benzoimidazol-5-yl)-benzooxazol-2-yl]-(3,4,5-trimethoxy-phenyl)-amine], for which the melting point lay in the range of 150 to 156 °C.

As to `COc1cc(Nc2nc3cccc(-c4ccc(NC(C)=O)cc4)c3o2)cc(OC)c1OC` (hydrate or solvate) [Example 27, N-{4-[2-(3,4,5-Trimethoxy-phenylamino)-benzooxazol-7-yl]-phenyl}-acetamide], the melting point is 265 to 270 °C. Take `COc1cc(Nc2nc3ccnc(-c4ccc(CNS(C)(=O)=O)cc4)c3o2)cc(OC)c1OC` [Example 62, N-{4-[2-(3,4,5-Trimethoxy-phenylamino)-oxazolo[5,4-c]pyridin-4-yl]-benzyl}-methanesulfonamide]: the IC50 at GST-JAK2(808-1132) came out at 16 nM; on GST-JAK2, 230 nM. On to `COc1ccc(Nc2nc3cccc(-c4ccc(S(N)(=O)=O)cc4)c3o2)cc1OC` [Example 58, 4-[2-(3,4-Dimethoxy-phenylamino)-benzooxazol-7-yl]-benzenesulfonamide], for which the IC50 at GST-JAK2(808-1132) came out at 37 nM; at GST-JAK2 it was 41.5 nM. The compound `COc1cc(Nc2nc3cccc(-c4ccc(CN)cc4)c3o2)cc(OC)c1OC` (hydrate or solvate) [Example 29, [7-(4-Aminomethyl-phenyl)-benzooxazol-2-yl]-(3,4,5-trimethoxy-phenyl)-amine] showed a melting point of 208 to 211 °C. Compound `COc1cc(Nc2nc3cccc(-c4ccccc4)c3o2)cc(OC)c1OC` [Example 2, (7-Phenyl-benzooxazol-2-yl)-(3,4,5-trimethoxy-phenyl)-amine] showed a melting point of 182 to 185 °C. Still for that read-out and setting: under `COc1ccc(-c2cccc3nc(Nc4cc(OC)c(OC)c(OC)c4)oc23)cc1` [Example 7, [7-(4-Methoxy-phenyl)-benzooxazol-2-yl]-(3,4,5-trimethoxy-phenyl)-amine] stands 179 to 182 °C.
